Measurements from patent US10167262B2, “Herbicidal substituted 3-arylpyrazoles” (FMC CORPORATION, priority 2014, dated 2019).

What follows are compounds tested on barnyardgrass (Echinochloa crus-galli) (assay: Test A pre-/postemergence greenhouse herbicide test, visual injury rating 0-100). Conditions: Postemergence, 125 g ai/ha.
Format: in vivo
In short: (§1)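 Scale 0–100 (none to complete control), visual, versus untreated controls after approx. 10 greenhouse days. Pre: directed soil spray at planting. Post: 2–10 cm, one- to two-leaf plants. Non-phytotoxic solvent plus surfactant vehicle.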
For `N#CCn1cc(C(=O)c2ccccc2)c(-c2cc(Cl)cc(Cl)c2)n1` [Compound 43], the “Plant response rating (0 to 100 scale), Barnyardgrass” value was 0.

Same assay, conditions: Postemergence, 500 g ai/ha
With `N#CCn1cc(C(=O)c2ccccc2)c(-c2cc(Cl)cc(Cl)c2)n1` [Compound 43] the “Plant response rating (0 to 100 scale), Barnyardgrass” value was 0.

Same assay, conditions: Preemergence, 125 g ai/ha
`N#CCn1cc(C(=O)c2ccccc2)c(-c2cc(Cl)cc(Cl)c2)n1` [Compound 43] was tested, and the “Barnyardgrass plant response rating (0 = no effect, 100 = complete control)” value was 0.

Same assay, conditions: Preemergence, 500 g ai/ha
With `N#CCn1cc(C(=O)c2ccccc2)c(-c2cc(Cl)cc(Cl)c2)n1` [Compound 43] the “Plant response rating (0 to 100 scale), Barnyardgrass” value was 0.

These compounds were tested on corn (Zea mays) in the same assay as above. Conditions: Postemergence, 125 g ai/ha.
Format: in vivo
In short: as §1
For `N#CCn1cc(C(=O)c2ccccc2)c(-c2cc(Cl)cc(Cl)c2)n1` [Compound 43], the “Plant response rating (0 to 100 scale), Corn” value was 0.

Same assay, conditions: Postemergence, 500 g ai/ha
`N#CCn1cc(C(=O)c2ccccc2)c(-c2cc(Cl)cc(Cl)c2)n1` [Compound 43] was tested, and the “Plant response rating (0 to 100 scale), Corn” value was 0.

Same assay, conditions: Preemergence, 125 g ai/ha
With `N#CCn1cc(C(=O)c2ccccc2)c(-c2cc(Cl)cc(Cl)c2)n1` [Compound 43] the “Corn plant response rating (0 = no effect, 100 = complete control)” value was 0.

Same assay, conditions: Preemergence, 500 g ai/ha
With `N#CCn1cc(C(=O)c2ccccc2)c(-c2cc(Cl)cc(Cl)c2)n1` [Compound 43] the “Plant response rating (0 to 100 scale), Corn” value was 0.

These compounds were tested on giant foxtail (Setaria faberii) in the same assay as above. Conditions: Postemergence, 125 g ai/ha.
Format: in vivo
In short: as §1
With `N#CCn1cc(C(=O)c2ccccc2)c(-c2cc(Cl)cc(Cl)c2)n1` [Compound 43] the “Plant response rating (0 to 100 scale), Foxtail, Giant” value was 0.

Same assay, conditions: Postemergence, 500 g ai/ha
In the case of `N#CCn1cc(C(=O)c2ccccc2)c(-c2cc(Cl)cc(Cl)c2)n1` [Compound 43], the “Plant response rating (0 to 100 scale), Foxtail, Giant” value is reported as 0.

Same assay, conditions: Preemergence, 125 g ai/ha
In the case of `N#CCn1cc(C(=O)c2ccccc2)c(-c2cc(Cl)cc(Cl)c2)n1` [Compound 43], the “Foxtail, Giant plant response rating (0 = no effect, 100 = complete control)” value is reported as 0.

Same assay, conditions: Preemergence, 500 g ai/ha
In the case of `N#CCn1cc(C(=O)c2ccccc2)c(-c2cc(Cl)cc(Cl)c2)n1` [Compound 43], the “Plant response rating (0 to 100 scale), Foxtail, Giant” value is reported as 0.

Each compound was assayed on large (Lg) crabgrass (Digitaria sanguinalis) in the same assay as above. Conditions: Postemergence, 125 g ai/ha.
Format: in vivo
In short: as §1
In the case of `N#CCn1cc(C(=O)c2ccccc2)c(-c2cc(Cl)cc(Cl)c2)n1` [Compound 43], the “Plant response rating (0 to 100 scale), Crabgrass, Large” value is reported as 0.

Same assay, conditions: Postemergence, 500 g ai/ha
For `N#CCn1cc(C(=O)c2ccccc2)c(-c2cc(Cl)cc(Cl)c2)n1` [Compound 43], the “Plant response rating (0 to 100 scale), Crabgrass, Large” value was 0.

Same assay, conditions: Preemergence, 125 g ai/ha
In the case of `N#CCn1cc(C(=O)c2ccccc2)c(-c2cc(Cl)cc(Cl)c2)n1` [Compound 43], the “Crabgrass, Large plant response rating (0 = no effect, 100 = complete control)” value is reported as 0.

Same assay, conditions: Preemergence, 500 g ai/ha
With `N#CCn1cc(C(=O)c2ccccc2)c(-c2cc(Cl)cc(Cl)c2)n1` [Compound 43] the “Plant response rating (0 to 100 scale), Crabgrass, Large” value was 0.

The compounds below were run on morningglory (Ipomoea spp.) in the same assay as above. Conditions: Preemergence, 125 g ai/ha.
Format: in vivo
In short: as §1
`N#CCn1cc(C(=O)c2ccccc2)c(-c2cc(Cl)cc(Cl)c2)n1` [Compound 43] was tested, and the “Morningglory plant response rating (0 = no effect, 100 = complete control)” value was 0.

Same assay, conditions: Preemergence, 500 g ai/ha
`N#CCn1cc(C(=O)c2ccccc2)c(-c2cc(Cl)cc(Cl)c2)n1` [Compound 43] was tested, and the “Plant response rating (0 to 100 scale), Morningglory” value was 0.

What follows are compounds tested on pigweed (Amaranthus retroflexus) in the same assay as above. Conditions: Postemergence, 125 g ai/ha.
Format: in vivo
In short: as §1
`N#CCn1cc(C(=O)c2ccccc2)c(-c2cc(Cl)cc(Cl)c2)n1` [Compound 43] was tested, and the “Plant response rating (0 to 100 scale), Pigweed” value was 50.

Same assay, conditions: Postemergence, 500 g ai/ha
`N#CCn1cc(C(=O)c2ccccc2)c(-c2cc(Cl)cc(Cl)c2)n1` [Compound 43] was tested, and the “Plant response rating (0 to 100 scale), Pigweed” value was 80.

Same assay, conditions: Preemergence, 125 g ai/ha
For `N#CCn1cc(C(=O)c2ccccc2)c(-c2cc(Cl)cc(Cl)c2)n1` [Compound 43], the “Pigweed plant response rating (0 = no effect, 100 = complete control)” value was 0.

Same assay, conditions: Preemergence, 500 g ai/ha
With `N#CCn1cc(C(=O)c2ccccc2)c(-c2cc(Cl)cc(Cl)c2)n1` [Compound 43] the “Plant response rating (0 to 100 scale), Pigweed” value was 40.

What follows are compounds tested on velvetleaf (Abutilon theophrasti) in the same assay as above. Conditions: Postemergence, 125 g ai/ha.
Format: in vivo
In short: as §1
For `N#CCn1cc(C(=O)c2ccccc2)c(-c2cc(Cl)cc(Cl)c2)n1` [Compound 43], the “Plant response rating (0 to 100 scale), Velvetleaf” value was 20.

Same assay, conditions: Postemergence, 500 g ai/ha
For `N#CCn1cc(C(=O)c2ccccc2)c(-c2cc(Cl)cc(Cl)c2)n1` [Compound 43], the “Plant response rating (0 to 100 scale), Velvetleaf” value was 80.

Same assay, conditions: Preemergence, 125 g ai/ha
With `N#CCn1cc(C(=O)c2ccccc2)c(-c2cc(Cl)cc(Cl)c2)n1` [Compound 43] the “Velvetleaf plant response rating (0 = no effect, 100 = complete control)” value was 30.

Same assay, conditions: Preemergence, 500 g ai/ha
`N#CCn1cc(C(=O)c2ccccc2)c(-c2cc(Cl)cc(Cl)c2)n1` [Compound 43] was tested, and the “Plant response rating (0 to 100 scale), Velvetleaf” value was 30.

Each compound was assayed on wheat (Triticum aestivum) in the same assay as above. Conditions: Postemergence, 125 g ai/ha.
Format: in vivo
In short: as §1
With `N#CCn1cc(C(=O)c2ccccc2)c(-c2cc(Cl)cc(Cl)c2)n1` [Compound 43] the “Plant response rating (0 to 100 scale), Wheat” value was 0.

Same assay, conditions: Postemergence, 500 g ai/ha
For `N#CCn1cc(C(=O)c2ccccc2)c(-c2cc(Cl)cc(Cl)c2)n1` [Compound 43], the “Plant response rating (0 to 100 scale), Wheat” value was 0.

Same assay, conditions: Preemergence, 125 g ai/ha
For `N#CCn1cc(C(=O)c2ccccc2)c(-c2cc(Cl)cc(Cl)c2)n1` [Compound 43], the “Wheat plant response rating (0 = no effect, 100 = complete control)” value was 0.

Same assay, conditions: Preemergence, 500 g ai/ha
For `N#CCn1cc(C(=O)c2ccccc2)c(-c2cc(Cl)cc(Cl)c2)n1` [Compound 43], the “Plant response rating (0 to 100 scale), Wheat” value was 0.

These compounds were tested on barnyardgrass (Echinochloa crus-galli) (assay: Test B flooded paddy test, plant response rating 0-100). Conditions: Flood, 250 g ai/ha; scale 0 to 100 (0 no effect, 100 complete control); 13 to 15 days.
Format: in vivo
In short: (§2)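 Under a constant 3 cm flood, test compounds went directly into the paddy water. Following 13 to 15 days of greenhouse growth, treated species and controls were compared by eye.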
With `N#CCn1cc(C(=O)c2ccccc2)c(-c2cc(Cl)cc(Cl)c2)n1` [Compound 43] the “Plant response rating, Barnyardgrass” value was 0.

What follows are compounds tested on ducksalad (Heteranthera limosa) in the same assay as above. Conditions: Flood, 250 g ai/ha; scale 0 to 100 (0 no effect, 100 complete control); 13 to 15 days.
Format: in vivo
In short: as §2
`N#CCn1cc(C(=O)c2ccccc2)c(-c2cc(Cl)cc(Cl)c2)n1` [Compound 43] was tested, and the “Plant response rating, Ducksalad” value was 0.

The compounds below were run on rice (Oryza sativa) in the same assay as above. Conditions: Flood, 250 g ai/ha; scale 0 to 100 (0 no effect, 100 complete control); 13 to 15 days.
Format: in vivo
In short: as §2
With `N#CCn1cc(C(=O)c2ccccc2)c(-c2cc(Cl)cc(Cl)c2)n1` [Compound 43] the “Plant response rating, Rice” value was 0.

Each compound was assayed on sedge, umbrella (small-flower umbrella sedge, Cyperus difformis) in the same assay as above. Conditions: Flood, 250 g ai/ha; scale 0 to 100 (0 no effect, 100 complete control); 13 to 15 days.
Format: in vivo
In short: as §2
With `N#CCn1cc(C(=O)c2ccccc2)c(-c2cc(Cl)cc(Cl)c2)n1` [Compound 43] the “Plant response rating, Sedge, Umbrella” value was 0.
